“And” between values parts separate entries of the source, which are not always exact repeats. Equal values may be shown once.
Test system: spores of Bacillus cereus
Type: cell-based

SMILES: C[C@H](N)C(=O)O [L-alanine]
- CFU: 72 and 85
- induction of spore germination (control samples A and B): did induce germination

Source: patent US6547971B2 (priority 2000, dated 2003)
